Molecular target: T1, MAP kinase-interacting serine/threonine-protein kinase 1 [T344D] (Homo sapiens, UniProt Q9BUB5, T344D)
T1 construct: gene MKNK1
Test: MKNK1 Kinase High ATP Assay
Settings: pH 7.5
Text: TBDA recombinant fusion protein of Glutathione-S-Transferase (GST, N-terminally) and human full-length MKNK1 (amino acids 1-424 and T344D of accession number BAA 19885.1), expressed in insect cells using baculovirus expression system and purified via glutathione sepharose affinity chromatography, was purchased from Carna Biosciences (product no 02-145) and used as enzyme. As substrate for the kinase reaction the biotinylated peptide biotin-Ahx-IKKRKLTRRKSLKG (C-terminus in amide form) was used, which can be purchased e.g. from the company Biosyntan (Berlin-Buch, Germany).For the assay 50 nL of a 100 fold concentrated solution of the test compound in DMSO was pipetted into a black low volume 384 well microtiter plate (Greiner Bio-One, Frickenhausen, Germany), 2 μL of a solution of MKNK1 in aqueous assay buffer [50 mM HEPES pH 7.5, 5 mM MgCl2, 1.0 mM dithiothreitol, 0.005% (v/v) Nonidet-P40 (Sigma)] was added and the mixture was incubated for 15 min at 22° C. to allow pre-binding of the test compounds to the enzyme before the start of the kinase reaction. Then the kinase reaction was started by the addition of 3 μL of a solution of adenosine-tri-phosphate (ATP, 3.3 mM=>final conc. in the 5 μL assay volume is 2 mM) and substrate (0.1 μM=>final conc. in the 5 μL assay volume is 0.06 μM) in assay buffer and the resulting mixture was incubated for a reaction time of 30 min at 22° C. […]

T1 sequence (Q9BUB5 whole entry, looked up, stated change not applied): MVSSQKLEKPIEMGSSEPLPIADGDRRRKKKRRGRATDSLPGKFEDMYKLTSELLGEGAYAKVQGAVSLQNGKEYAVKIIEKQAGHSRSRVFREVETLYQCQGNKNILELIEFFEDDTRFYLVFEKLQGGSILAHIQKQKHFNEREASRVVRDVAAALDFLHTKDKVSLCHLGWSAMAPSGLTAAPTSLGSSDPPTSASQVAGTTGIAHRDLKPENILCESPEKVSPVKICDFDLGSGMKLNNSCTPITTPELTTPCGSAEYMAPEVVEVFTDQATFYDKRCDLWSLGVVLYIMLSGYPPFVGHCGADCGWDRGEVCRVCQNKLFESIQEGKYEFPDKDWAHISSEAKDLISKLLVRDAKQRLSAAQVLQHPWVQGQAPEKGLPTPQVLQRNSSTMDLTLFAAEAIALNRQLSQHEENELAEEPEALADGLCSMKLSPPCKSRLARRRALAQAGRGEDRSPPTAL

COc1cc2[nH]ncc2cc1Nc1ncnc2[nH]ncc12 [US9556181, 2]
IC50: 49 nM

— BindingDB's records for patent US9556181 (Bayer Pharma Aktiengesellschaft, 2017)
